From article PMC5448077, “Development of an orally available inhibitor of CLK1 for skipping a mutated dystrophin exon in Duchenne muscular dystrophy” (Scientific Reports, 2017)

How the values were obtained:
Experiment in all cases: biochemical
AKT1 = AKT1 (Homo sapiens, UniProt P31749)
Description: (§1) These assays rely on the phosphorylation of small synthetic peptides developed for each kinase, and detect activity by changes in electrophoretic mobility (MSA assay) or by binding of a fluorescently labelled peptide to a large micro-particle and concomitant polarization increases (IMAP assay). Reaction conditions for each kinase are described in Supplementary Table S5. All kinase assays were carried out at Carna Biosciences (Kobe, Japan). The inhibitory map was constructed using Kinome Render[41]. Inhibitor (4×), substrate/ATP-Metal (4×), and kinase (2×) solutions were prepared with assay buffer (20 mM HEPES, 0.01% Triton X-100, 2 mM DTT, pH 7.5) and mixed in 384-well plates at room temperature for 1 or 5 h depending on the kinase. Reactions were stopped by the addition of termination buffer (QuickScout Screening Assist MSA; Carna Biosciences). The entire reaction mixture was then applied to a LabChip system (Perkin-Elmer, Waltham, MA, USA) and the product and substrate peptide peaks were separated and quantified, and then heights of product (P) and substrate (S) peptide peaks were calculated. The level of kinase activity was evaluated with the following equation: activity = P/(P + S).

ALK = ALK (Homo sapiens, UniProt Q9UM73)
Description: as §1

BMX = BMX (Homo sapiens, UniProt P51813)
Description: as §1

CDK9/CycT1 = CDK9/CycT1 (Homo sapiens, UniProt P50750)
Description: as §1

CHK1 = target: T1, CHK1 (Homo sapiens, UniProt O14757)
T1 construct: gene CHEK1
Description: as §1

CK1δ = target: T2, CK1δ (Homo sapiens, UniProt P48730)
T2 construct: gene CSNK1D
Description: as §1

CLK2 = CLK2 (Homo sapiens, UniProt P49760)
Description: as §1

CRIK = target: T3, CRIK (Homo sapiens, UniProt O14578)
T3 construct: gene CIT
Description: as §1

DYRK2 = DYRK2 (Homo sapiens, UniProt Q92630)
Description: as §1

EPHA1 = EPHA1 (Homo sapiens, UniProt P21709)
Sequence of EPHA1 (P21709 whole entry): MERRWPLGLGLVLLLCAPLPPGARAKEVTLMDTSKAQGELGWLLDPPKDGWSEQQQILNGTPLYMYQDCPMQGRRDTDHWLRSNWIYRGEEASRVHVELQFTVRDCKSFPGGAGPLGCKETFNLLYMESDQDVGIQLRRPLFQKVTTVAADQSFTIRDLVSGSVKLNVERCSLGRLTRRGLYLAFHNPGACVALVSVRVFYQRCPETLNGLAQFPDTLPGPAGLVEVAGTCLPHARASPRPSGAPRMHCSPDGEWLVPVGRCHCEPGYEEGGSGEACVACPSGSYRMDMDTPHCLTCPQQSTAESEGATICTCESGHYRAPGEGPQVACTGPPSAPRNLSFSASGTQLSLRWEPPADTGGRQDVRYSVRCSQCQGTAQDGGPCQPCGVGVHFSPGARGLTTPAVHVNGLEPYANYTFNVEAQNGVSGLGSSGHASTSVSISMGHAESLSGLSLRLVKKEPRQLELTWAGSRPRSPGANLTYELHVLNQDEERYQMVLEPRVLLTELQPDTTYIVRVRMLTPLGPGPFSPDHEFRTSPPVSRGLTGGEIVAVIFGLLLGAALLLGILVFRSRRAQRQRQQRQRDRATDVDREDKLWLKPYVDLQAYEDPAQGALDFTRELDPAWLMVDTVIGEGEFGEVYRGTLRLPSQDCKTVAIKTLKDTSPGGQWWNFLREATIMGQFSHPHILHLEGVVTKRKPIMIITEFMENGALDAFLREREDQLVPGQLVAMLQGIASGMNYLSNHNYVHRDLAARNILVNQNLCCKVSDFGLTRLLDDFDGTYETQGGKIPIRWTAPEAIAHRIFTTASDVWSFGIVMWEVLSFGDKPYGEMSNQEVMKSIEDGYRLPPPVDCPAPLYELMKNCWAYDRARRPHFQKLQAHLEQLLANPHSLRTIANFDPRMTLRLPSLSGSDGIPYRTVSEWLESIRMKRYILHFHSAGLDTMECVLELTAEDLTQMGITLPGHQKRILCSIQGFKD
Description: as §1

FGFR2 = FGFR2 (Homo sapiens, UniProt P21802)
Description: as §1

FLT4 = FLT4 (Homo sapiens, UniProt P35916)
Description: as §1

HER4 = target: T4, HER4 (Homo sapiens, UniProt Q15303)
T4 construct: gene ERBB4
Description: as §1

KIT(T670I) = KIT(T670I) (Homo sapiens, UniProt P10721, T670I)
Description: as §1

MNK2 = target: T5, MNK2 (Homo sapiens, UniProt Q9HBH9)
T5 construct: gene MKNK2
Description: as §1

MSK1 = target: T6, MSK1 (Homo sapiens, UniProt O75582)
T6 construct: gene RPS6KA5
Description: as §1

NEK2 = NEK2 (Homo sapiens, UniProt P51955)
Description: as §1

NEK4 = NEK4 (Homo sapiens, UniProt P51957)
Sequence of NEK4 (P51957 whole entry): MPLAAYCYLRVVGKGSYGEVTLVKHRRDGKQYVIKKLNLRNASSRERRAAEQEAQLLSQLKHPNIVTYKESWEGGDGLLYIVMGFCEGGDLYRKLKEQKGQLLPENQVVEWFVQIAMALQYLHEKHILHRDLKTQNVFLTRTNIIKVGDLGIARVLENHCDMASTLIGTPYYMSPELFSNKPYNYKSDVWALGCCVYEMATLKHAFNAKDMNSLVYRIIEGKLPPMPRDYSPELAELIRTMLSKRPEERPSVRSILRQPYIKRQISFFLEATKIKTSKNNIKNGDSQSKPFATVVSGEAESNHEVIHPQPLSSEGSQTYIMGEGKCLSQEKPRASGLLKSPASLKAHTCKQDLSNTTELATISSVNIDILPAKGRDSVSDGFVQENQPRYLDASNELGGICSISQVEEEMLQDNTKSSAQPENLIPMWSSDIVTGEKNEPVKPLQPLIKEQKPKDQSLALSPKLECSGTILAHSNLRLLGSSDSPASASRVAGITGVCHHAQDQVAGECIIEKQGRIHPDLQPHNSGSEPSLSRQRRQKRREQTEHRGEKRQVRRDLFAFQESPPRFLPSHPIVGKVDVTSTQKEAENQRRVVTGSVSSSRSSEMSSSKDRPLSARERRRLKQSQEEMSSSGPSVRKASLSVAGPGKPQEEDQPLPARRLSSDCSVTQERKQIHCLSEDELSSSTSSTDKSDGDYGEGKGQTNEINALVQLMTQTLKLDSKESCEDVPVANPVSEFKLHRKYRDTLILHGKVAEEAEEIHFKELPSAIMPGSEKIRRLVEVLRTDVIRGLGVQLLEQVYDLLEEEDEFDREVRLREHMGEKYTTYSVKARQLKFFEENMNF
Description: as §1

PDHK2 = target: T7, PDHK2 (Homo sapiens, UniProt Q15119)
T7 construct: gene PDK2
Description: as §1

PIM1 = PIM1 (Homo sapiens, UniProt P11309)
Sequence of PIM1 (P11309 whole entry): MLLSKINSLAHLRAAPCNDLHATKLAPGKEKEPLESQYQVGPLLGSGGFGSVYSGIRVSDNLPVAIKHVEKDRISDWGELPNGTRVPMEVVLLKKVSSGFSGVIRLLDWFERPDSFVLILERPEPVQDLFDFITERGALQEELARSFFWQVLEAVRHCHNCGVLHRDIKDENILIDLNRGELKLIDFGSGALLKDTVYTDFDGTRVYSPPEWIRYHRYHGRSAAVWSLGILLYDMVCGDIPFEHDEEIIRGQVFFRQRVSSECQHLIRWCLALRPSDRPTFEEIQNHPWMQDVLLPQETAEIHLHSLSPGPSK
Description: as §1

PKCβ2 = target: T8, PKCβ2 (Homo sapiens, UniProt P05771)
T8 construct: gene PRKCB; isoform beta2
Description: as §1

PKCε = target: T9, PKCε (Homo sapiens, UniProt Q02156)
T9 construct: gene PRKCE
Description: as §1

PKCθ = target: T10, PKCθ (Homo sapiens, UniProt Q04759)
T10 construct: gene PRKCQ
Description: as §1

QIK = target: T11, QIK (Homo sapiens, UniProt Q9H0K1)
T11 construct: gene SIK2
Description: as §1

RET(Y791F) = RET(Y791F) (Homo sapiens, UniProt P07949, Y791F)
Description: as §1

RON = target: T12, RON (Homo sapiens, UniProt Q04912)
T12 construct: gene MST1R
Description: as §1

RSK3 = target: T13, RSK3 (Homo sapiens, UniProt Q15349)
T13 construct: gene RPS6KA2
Description: as §1

TEC = TEC (Homo sapiens, UniProt P42680)
Description: as §1

WNK2 = WNK2 (Homo sapiens, UniProt Q9Y3S1)
Sequence of WNK2 (Q9Y3S1 whole entry): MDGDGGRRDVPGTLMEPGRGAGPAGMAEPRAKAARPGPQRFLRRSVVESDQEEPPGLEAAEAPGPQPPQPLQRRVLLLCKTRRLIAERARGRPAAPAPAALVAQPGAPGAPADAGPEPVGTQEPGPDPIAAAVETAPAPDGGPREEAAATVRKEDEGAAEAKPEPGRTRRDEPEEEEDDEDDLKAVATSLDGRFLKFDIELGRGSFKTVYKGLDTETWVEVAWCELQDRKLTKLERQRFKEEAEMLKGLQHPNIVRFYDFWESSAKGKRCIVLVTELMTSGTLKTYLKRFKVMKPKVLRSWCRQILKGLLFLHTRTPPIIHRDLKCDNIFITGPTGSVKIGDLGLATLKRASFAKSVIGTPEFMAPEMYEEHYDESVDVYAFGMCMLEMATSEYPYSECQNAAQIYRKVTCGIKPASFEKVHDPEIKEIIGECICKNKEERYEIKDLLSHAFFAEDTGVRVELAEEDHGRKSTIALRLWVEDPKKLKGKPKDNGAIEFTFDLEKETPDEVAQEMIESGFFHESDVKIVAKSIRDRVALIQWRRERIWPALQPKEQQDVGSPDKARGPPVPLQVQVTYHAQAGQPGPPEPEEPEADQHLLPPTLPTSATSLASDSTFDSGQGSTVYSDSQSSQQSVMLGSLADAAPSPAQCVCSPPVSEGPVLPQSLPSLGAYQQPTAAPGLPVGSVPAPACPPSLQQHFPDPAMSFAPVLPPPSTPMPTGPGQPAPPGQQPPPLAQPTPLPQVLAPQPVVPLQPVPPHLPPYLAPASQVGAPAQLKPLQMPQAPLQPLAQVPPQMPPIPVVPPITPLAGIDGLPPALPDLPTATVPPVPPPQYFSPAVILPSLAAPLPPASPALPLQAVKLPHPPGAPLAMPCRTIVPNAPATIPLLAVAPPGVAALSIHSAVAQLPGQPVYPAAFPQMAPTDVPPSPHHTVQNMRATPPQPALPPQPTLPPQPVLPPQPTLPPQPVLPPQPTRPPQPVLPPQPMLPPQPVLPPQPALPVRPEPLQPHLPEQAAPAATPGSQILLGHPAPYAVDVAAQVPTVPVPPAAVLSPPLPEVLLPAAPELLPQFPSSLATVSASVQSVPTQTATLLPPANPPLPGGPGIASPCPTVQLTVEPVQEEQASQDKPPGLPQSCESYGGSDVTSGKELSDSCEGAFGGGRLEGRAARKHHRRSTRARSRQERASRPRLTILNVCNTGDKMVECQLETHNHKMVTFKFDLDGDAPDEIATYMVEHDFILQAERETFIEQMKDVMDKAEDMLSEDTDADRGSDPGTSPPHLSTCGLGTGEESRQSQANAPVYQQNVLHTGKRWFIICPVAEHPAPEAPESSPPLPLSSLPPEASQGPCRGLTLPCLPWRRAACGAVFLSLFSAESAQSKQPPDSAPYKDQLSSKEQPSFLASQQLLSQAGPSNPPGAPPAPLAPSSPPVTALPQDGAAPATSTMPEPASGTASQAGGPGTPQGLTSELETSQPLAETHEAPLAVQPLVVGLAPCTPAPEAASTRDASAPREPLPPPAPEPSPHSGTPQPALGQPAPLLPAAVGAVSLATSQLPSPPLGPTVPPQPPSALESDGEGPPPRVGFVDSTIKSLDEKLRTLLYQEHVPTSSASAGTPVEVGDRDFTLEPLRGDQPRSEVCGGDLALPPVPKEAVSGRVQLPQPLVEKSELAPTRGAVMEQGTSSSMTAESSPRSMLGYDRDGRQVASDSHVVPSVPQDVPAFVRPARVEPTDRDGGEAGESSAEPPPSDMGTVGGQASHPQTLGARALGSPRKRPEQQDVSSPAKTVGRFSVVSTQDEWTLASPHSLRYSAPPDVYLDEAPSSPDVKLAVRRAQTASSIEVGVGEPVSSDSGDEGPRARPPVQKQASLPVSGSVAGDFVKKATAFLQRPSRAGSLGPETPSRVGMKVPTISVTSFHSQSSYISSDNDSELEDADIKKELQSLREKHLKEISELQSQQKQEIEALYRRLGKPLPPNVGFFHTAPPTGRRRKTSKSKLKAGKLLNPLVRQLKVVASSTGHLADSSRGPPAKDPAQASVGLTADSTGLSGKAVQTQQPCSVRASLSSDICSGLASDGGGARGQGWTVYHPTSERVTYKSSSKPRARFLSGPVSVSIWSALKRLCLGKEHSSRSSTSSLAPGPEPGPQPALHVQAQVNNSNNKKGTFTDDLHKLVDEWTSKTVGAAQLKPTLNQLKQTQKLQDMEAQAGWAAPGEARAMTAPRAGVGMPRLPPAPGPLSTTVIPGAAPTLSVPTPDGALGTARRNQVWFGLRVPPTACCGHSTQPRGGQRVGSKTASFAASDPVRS
Description: as §1

p38γ = target: T14, p38γ (Homo sapiens, UniProt P53778)
T14 construct: gene MAPK12
T14 sequence (P53778 whole entry): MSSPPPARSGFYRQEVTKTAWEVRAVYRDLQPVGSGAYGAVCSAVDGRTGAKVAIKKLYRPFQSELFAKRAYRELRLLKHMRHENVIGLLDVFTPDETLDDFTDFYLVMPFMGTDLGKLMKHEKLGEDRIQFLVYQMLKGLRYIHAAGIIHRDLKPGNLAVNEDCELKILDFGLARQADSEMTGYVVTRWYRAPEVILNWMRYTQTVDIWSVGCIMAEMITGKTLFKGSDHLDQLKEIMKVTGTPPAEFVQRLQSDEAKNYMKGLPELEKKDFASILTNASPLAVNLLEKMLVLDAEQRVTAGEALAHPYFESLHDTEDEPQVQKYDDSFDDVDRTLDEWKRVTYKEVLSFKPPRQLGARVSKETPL
Description: as §1

p70S6K = target: T15, p70S6K (Homo sapiens, UniProt P23443)
T15 construct: gene RPS6KB1
Description: as §1

For `c1cc(-c2ccc3[nH]ncc3c2)ccn1` [TG693, 5-(4-pyridinyl)-1H-indazole], the inhibition at 1 µM (AKT1) was -1.3%, the inhibition at 1 µM (ALK) was 6.1% and the inhibition at 1 µM (BMX) was 4.6%. For the same molecule, the inhibition at 1 µM (CDK9/CycT1) was 57.8%, the inhibition at 1 µM (CHK1) was 1.7% and the inhibition at 1 µM (CK1δ) was 21.3%. It also gave an inhibition at 1 µM (CLK2) of 14.9%, an inhibition at 1 µM (CRIK) of 16.9% and an inhibition at 1 µM (DYRK2) of 77.2%. The inhibition at 1 µM (EPHA1) was -2.8%, the inhibition at 1 µM (FGFR2) was 1.7% and the inhibition at 1 µM (FLT4) was -0.3%. For the same molecule, the inhibition at 1 µM (HER4) was 5.8%, the inhibition at 1 µM (KIT(T670I)) was -0.7% and the inhibition at 1 µM (MNK2) was 57.3%. For the same molecule, the inhibition at 1 µM (MSK1) was 1.2%, the inhibition at 1 µM (NEK2) was -11.9% and the inhibition at 1 µM (NEK4) was -4.2%. For the same molecule, the inhibition at 1 µM (PDHK2) was -0.8%, the inhibition at 1 µM (PIM1) was 1.2% and the inhibition at 1 µM (PKCβ2) was -11.8%. It also gave an inhibition at 1 µM (PKCε) of 12.3%, an inhibition at 1 µM (PKCθ) of -12.6% and an inhibition at 1 µM (QIK) of 3.4%. The inhibition at 1 µM (RET(Y791F)) was 3%, the inhibition at 1 µM (RON) was 1.1% and the inhibition at 1 µM (RSK3) was -4.8%. For the same molecule, the inhibition at 1 µM (TEC) was -0.4%, the inhibition at 1 µM (WNK2) was 4% and the inhibition at 1 µM (p38γ) was 1.4%. The inhibition at 1 µM (p70S6K) was 46%.
